From patent US12438175B2, “Aqueous organic-based electrolyte for redox flow battery” (KEMIWATT, priority 2019, dated 2025)
≈ marks a conversion by molar mass, not a printed value. Structures can show the parent of a compound that is named as a salt.

How the values were obtained:
[1] = Cyclic voltammetry / linear sweep voltammetry, electrochemical parameters; type: physicochemical; conditions: for Peak-to-peak separation ΔEp: 100 mV/s, third cycle
Protocol: Cyclic voltammetry experiments were performed at a 100 mV/s scan rate for compounds M3CH, D3CH, D4CH, M3SH, D3SH, M4SH and D4SH in solution at pH 13 (KOH 0.1 M) or pH 14 (KOH 1 M).
The electrochemical experiments were conducted on an electrochemical working station (BioLogic Science Instruments VSP) at 25° C. using a three-electrodes electrochemical cell, where a Pt wire was employed at the counter electrode (CE), an Ag/AgCl/KCl saturated electrode immerged in a 1 M KOH solution protected from the cell by a porous frit glass served as the reference electrode (RE) and a rotating disc electrode (RDE) mounted with a glassy carbon (GC, 7.069 mm^2) disk was used as the working electrode (WE), respectively. The potential was reported relative to the normal hydrogen electrode (NHE), which was converted from the Ag/AgCl reference electrode (0.230 V versus NHE). The ohmic drop between the WE and RE is determined by current interrupt experiments and leads to a value close to 0.7069 Ω·cm^2. All cyclic voltammetry experiments were conducted by alleviating most of this resistance (85%) using the potentiostat manual ohmic drop compensation. Before each electrochemical measurement, the GC disk electrode was polished using SiC P4000 foil.
Each recorded cyclic voltammetry of the reduction and the oxidation process of a compound at a given scan rate is analyzed by measuring ip,a=anodic peak current; ip,c=cathodic peak current; v=scan rate; Ep,a=anodic peak potential; Ep,c=cathodic peak potential; ΔEp=Ep,a−Ep,c; the apparent standard redox potential E^0′=[…].
Linear sweep voltammetry (LSV) using the RDE at various rotation speed (400 up to 1 000 RPM) were performed to determine the averaged half-wave potential E1/2.
The oxidation (DO) and the reduction (DR) diffusion coefficients were calculated using Randles-Sevcik (RS) equation ip=0.4463·n^3/2·F^3/2·A·C·v^1/2·D^1/2·R^−1/2·T^−1/2=Cye·v^1/2·D^1/2, n=number of electrons exchanged during the redox process; F=faradaic number=96485 C·mol^−1; A=electrode active surface; C=redox active molecule concentration; R=gas constant=8.314 J·K^−1·mol^−1; T=bulk temperature=299 K. The experiments are conducted by cyclic voltammetry at various scan rates ranging from 10 mV/s up to 20 V/s.
A graphic of lip,al and lip,cl=f(Cte×v^1/2) is plotted, if the redox process is reversible and diffusion controlled, the peak current should be proportional to the square root of the scan rate. The diffusion coefficients (oxidation and reduction) are then calculated by taking the square of the regression lines slopes. Diffusion coefficients (oxidation and reduction processes) are evaluated by plotting the peak current versus a constant multiplied by the square root of the scan rate. The plots regression line gives a straight line with perfect correlation coefficient (100%) confirming that the redox process is reversible and diffusion controlled. The square of each slope gives the associated coefficient diffusion in cm^2 s^−1.
The apparent heterogeneous rate constant during oxidation (k^0′O)/and reduction (k^0′R) process was calculated using Gileadi's equation (C. Rüssel, W. Jaenicke, Electrochimica Acta, Vol 27, N° 12, 1745-1750, 1982) log k^0′=−0.48α+0.52 +log[(nFαvcD)/(2.303RT)]^1/2; vc is the critical scan rate, it is calculated by plotting the peak potentials versus the logarithm of the scan rates, and is more precise when a very wide range of scan rates is used, which is the case here (0.010 up to 20 V·s^−1), it is determined at the x-axis of the point of intersection of the regression lines drawn at low and high scan rates; a is the transfer coefficient that is supposed to be close to 0.5 for all presented compounds.
Peak-to-peak separation ΔEp values were determined from the third cycle of each cyclic voltammogram (FIGS. 1 and 2) and are gathered in the following table 4.
The standard redox process reversibility evaluation is performed in diluted state, at 5 mM of concentration, at pH 14 buffered with 1 M of KOH. […]

[2] = Cycling tests of redox flow battery cells in constant power cycling mode
[3] = Solubility in aqueous solution at various pH by shake-flask method; conditions: thermodynamic from solid
Protocol: An aqueous solution (containing either KCl 1M, KOH 1M or H2SO4 1M) is added over 100 mg of compound by 20 μL portions until complete solubilization. We obtain an approximate range of solubility values calculated as following:
Smax˜(m/M)/V; m=mass of evaluated compound (g); M=molar mass of evaluated compound (g·mol^−1); V=added volume (L).

[4] = comparative redox active material in negolytes; cited from earlier work
[5] = 0.2 M ARS, pH 14.0, Battery no 1, 60 mL, flowrate 0.5 mL/min/cm^2
[6] = 0.2 M ARS, pH 14.0, Battery no 1, 60 mL, flowrate 5 mL/min/cm^2
[7] = 0.2 M ARS, pH 14.0, Battery no 2, 120 mL, flowrate 0.5 mL/min/cm^2
[8] = 0.2 M ARS, pH 14.0, Battery no 2, 120 mL, flowrate 5 mL/min/cm^2
[9] = extrapolated from 5 days, flowrate 0.5 mL/min/cm^2, negolyte 120/120/40/370 mL
[10] = 0.3 M Complexone, pH 13.7, Battery no 5, 40 mL, flowrate 0.5 mL/min/cm^2
[11] = 0.3 M Complexone, pH 13.7, Battery no 5, 40 mL, flowrate 5 mL/min/cm^2
[12] = 0.3 M AQ-2,7-DS, pH 13.0, Battery no 3, 60 mL, flowrate 0.5 mL/min/cm^2
[13] = 0.3 M AQ-2,7-DS, pH 13.0, Battery no 3, 60 mL, flowrate 5 mL/min/cm^2
[14] = 0.3 M AQ-2,7-DS, pH 13.0, Battery no 4, 120 mL, flowrate 0.5 mL/min/cm^2
[15] = 0.3 M AQ-2,7-DS, pH 13.0, Battery no 4, 120 mL, flowrate 5 mL/min/cm^2

Structure (SMILES): O=C1c2ccccc2C(=O)c2c(OCCCS(=O)(=O)O)ccc(O)c21 [Compound M3SH]
- E^0′ apparent standard redox potential ([1]; 5 mM, pH 14, 1 M KOH): −0.489 V vs NHE
- E1/2 half-wave potential ([1]; 5 mM, pH 14, 1 M KOH, RDE): −0.489 V vs NHE
- k^0′O × 10^−2 apparent heterogeneous rate constant ([1]; Gileadi's equation): 3.1 × 10^−2 cm/s
- DO × 10^−6 diffusion coefficient ([1]; Randles-Sevcik): 4.6 × 10^−6 cm^2/s
- Peak-to-peak separation ΔEp ([1]; pH 13 (KOH 0.1 M)): 97 mV
- Peak-to-peak separation ΔEp ([1]; pH 14 (KOH 1 M)): 40 mV
- Solubility, solution at pH 0 (H2SO4 1M): 0.31 M
- Solubility, solution at pH 14 (KOH 1M): 0.23 M

Structure (SMILES): O=C1c2ccccc2C(=O)c2c(OCCCS(=O)(=O)[O-])ccc(OCCCS(=O)(=O)[O-])c21.[Na+].[Na+] [Compound D3SNa]
- Solubility, solution at pH 0 (H2SO4 1M): 0.15 M
- Solubility, solution at pH 14 (KOH 1M): 0.44 M

Structure (SMILES): O=C1c2ccccc2C(=O)c2c1cc(S(=O)(=O)O)c(O)c2O [ARS, 1,2-Dihydroxyanthraquinone-3-sulfonic acid sodium salt]
- Stability in cycles (−20%) [2, 5]: 81 cycles
- Stability in days (−20%) [2, 5]: 3.5 days
- Stability in cycles (−20%) [2, 6]: 138 cycles
- Stability in days (−20%) [2, 6]: 6.4 days
- Stability in cycles (−20%) [2, 7]: 45 cycles
- Stability in days (−20%) [2, 7]: 3.8 days
- Stability in cycles (−20%) [2, 8]: 62 cycles
- Stability in days (−20%) [2, 8]: 6.6 days
- Stability in cycles (−20%) [2, 9]: 45 cycles
- Stability in days (−20%) [2, 9]: 3.5 days

Structure (SMILES): O=C1c2ccccc2C(=O)c2c(OCCCS(=O)(=O)O)ccc(O)c21 [Compound M3SNa]
- solubility ([3]; aqueous H2SO4 1M solution, pH 0, aqueous buffer): 460 mM (≈ 167 mg/mL)
- solubility ([3]; unbuffered aqueous KCl 1M solution, saline or isotonic): 320 mM (≈ 116 mg/mL)

Structure (SMILES): Cc1cc2nc3c(=O)[nH]c(=O)nc-3n(C[C@H](O)[C@H](O)[C@H](O)COP(=O)([O-])O)c2cc1C.[Na+] [Flavine FMN-Na]
- DO × 10^−6 [4]: 1.3 × 10^−6 cm^2/s
- k^0′O × 10^−2 [4]: 0.53 × 10^−2 cm/s

Structure (SMILES): O=C(O)CN(CC(=O)O)Cc1cc2c(c(O)c1O)C(=O)c1ccccc1C2=O [Complexone, 3,4-Dihydroxyanthraquinon-2-yl-methylimino-diacetic acid]
- Stability in cycles (−20%) [2, 10]: 63 cycles
- Stability in days (−20%) [2, 10]: 3.2 days
- Stability in cycles (−20%) [2, 11]: 69 cycles
- Stability in days (−20%) [2, 11]: 3.4 days
- Stability in cycles (−20%) [2, 9]: 74 cycles
- Stability in days (−20%) [2, 9]: 3.3 days

Structure (SMILES): O=C1c2ccc(OCCCP(=O)(O)O)cc2C(=O)c2ccc(OCCCP(=O)(O)O)cc21 [DPPEAQ]
- DO × 10^−6 [4]: 1.37 × 10^−6 cm^2/s

Structure (SMILES): O=C1c2ccccc2C(=O)c2c(OCCCCS(=O)(=O)[O-])ccc(O)c21.[Na+] [Compound M4SNa]
- Solubility, solution at pH 0 (H2SO4 1M): 0.37 M
- Solubility, solution at pH 14 (KOH 1M): 0.88 M

Structure (SMILES): C[N+](C)(C)CCC[n+]1ccc(-c2cc[n+](CCC[N+](C)(C)C)cc2)cc1.[Cl-].[Cl-].[Cl-].[Cl-] [BTMAP-Vi]
- DO × 10^−6 [4]: 3.3 × 10^−6 cm^2/s
- k^0′O × 10^−2 [4]: 2.2 × 10^−2 cm/s

Structure (SMILES): O=C1c2ccccc2C(=O)c2c(OCCCCS(=O)(=O)O)ccc(OCCCCS(=O)(=O)O)c21 [Compound D4SH]
- Peak-to-peak separation ΔEp ([1]; pH 13 (KOH 0.1 M)): 390 mV
- Peak-to-peak separation ΔEp ([1]; pH 14 (KOH 1 M)): 32 mV
- Solubility, solution at pH 0 (H2SO4 1M): 0.91 M
- Solubility, solution at pH 14 (KOH 1M): 0.78 M

Structure (SMILES): O=C1c2ccc(O)cc2C(=O)c2ccc(O)cc21 [DHAQ]
- DO × 10^−6 [4]: 4.8 × 10^−6 cm^2/s
- k^0′O × 10^−2 [4]: 0.70 × 10^−2 cm/s

Structure (SMILES): O=C1c2ccccc2C(=O)c2c(OCCCS(=O)(=O)O)ccc(OCCCS(=O)(=O)O)c21 [Compound D3SH]
- Peak-to-peak separation ΔEp ([1]; pH 13 (KOH 0.1 M)): 246 mV
- Peak-to-peak separation ΔEp ([1]; pH 14 (KOH 1 M)): 40 mV
- Solubility, solution at pH 0 (H2SO4 1M): 0.73 M
- Solubility, solution at pH 14 (KOH 1M): 0.92 M

Structure (SMILES): O=C(O)CCCOc1ccc(OCCCC(=O)O)c2c1C(=O)c1ccccc1C2=O [Compound D3CH]
- Peak-to-peak separation ΔEp ([1]; pH 13 (KOH 0.1 M)): 267 mV
- Peak-to-peak separation ΔEp ([1]; pH 14 (KOH 1 M)): 46 mV
- Solubility, solution at pH 0 (H2SO4 1M): 0.30 M
- Solubility, solution at pH 14 (KOH 1M): 0.42 M

Structure (SMILES): O=C1C=C(O)C(=O)C=C1O [DHBQ]
- DO × 10^−6 [4]: 3.66 × 10^−6 cm^2/s
- k^0′O × 10^−2 [4]: 0.21 × 10^−2 cm/s

Structure (SMILES): O=C1c2ccc(S(=O)(=O)O)cc2C(=O)c2cc(S(=O)(=O)O)ccc21 [AQ-2,7-DS, Anthraquinone-2,7-disulfonic acid disodium salt]
- DO × 10^−6 [4]: 3.8 × 10^−6 cm^2/s
- k^0′O × 10^−2 [4]: 0.72 × 10^−2 cm/s
- Stability in cycles (−20%) [2, 12]: 563 cycles
- Stability in days (−20%) [2, 12]: 27.1 days
- Stability in cycles (−20%) [2, 13]: 378 cycles
- Stability in days (−20%) [2, 13]: 21.1 days
- Stability in cycles (−20%) [2, 14]: 0 cycles
- Stability in days (−20%) [2, 14]: 0.0 days
- Stability in cycles (−20%) [2, 15]: 173 cycles
- Stability in days (−20%) [2, 15]: 19.6 days
- behaviour after decreasing the flowrate down to 0.5 mL/min/cm^2 ([2]; constraints close to real systems, 0.3 M, pH 13.0): precipitates directly
- Stability in cycles (−20%) [2, 9]: 0 cycles
- Stability in days (−20%) [2, 9]: 0.0 days

Structure (SMILES): O=C(O)CCCOc1ccc2c(c1)C(=O)c1ccc(OCCCC(=O)O)cc1C2=O [DBEAQ]
- DO × 10^−6 [4]: 1.58 × 10^−6 cm^2/s
- k^0′O × 10^−2 [4]: 0.70 × 10^−2 cm/s

Structure (SMILES): O=C1c2ccccc2C(=O)c2c(O)ccc(O)c21 [Quinizarin, quinizarin]
- solubility ([3]; aqueous KOH 1M solution, pH 14, aqueous buffer): < 50 mM
